Source: US20260217697A1, “COMPOUNDS COMPRISING HETEROARYL RINGS AND COMPOSITIONS AND METHODS THEREOF” (lonGen Therapeutics Co., Ltd., priority 2022, published 2026)

Biological target: T1, hTRPV3 (Homo sapiens, UniProt Q8NET8)
T1 construct: The commercially available plasmid with the full-length cDNA of hTRPV3 (791 aa) (NM_001258205.2); host or cells: HEK293T
T1 sequence (Q8NET8 1-791 isoform Q8NET8-2): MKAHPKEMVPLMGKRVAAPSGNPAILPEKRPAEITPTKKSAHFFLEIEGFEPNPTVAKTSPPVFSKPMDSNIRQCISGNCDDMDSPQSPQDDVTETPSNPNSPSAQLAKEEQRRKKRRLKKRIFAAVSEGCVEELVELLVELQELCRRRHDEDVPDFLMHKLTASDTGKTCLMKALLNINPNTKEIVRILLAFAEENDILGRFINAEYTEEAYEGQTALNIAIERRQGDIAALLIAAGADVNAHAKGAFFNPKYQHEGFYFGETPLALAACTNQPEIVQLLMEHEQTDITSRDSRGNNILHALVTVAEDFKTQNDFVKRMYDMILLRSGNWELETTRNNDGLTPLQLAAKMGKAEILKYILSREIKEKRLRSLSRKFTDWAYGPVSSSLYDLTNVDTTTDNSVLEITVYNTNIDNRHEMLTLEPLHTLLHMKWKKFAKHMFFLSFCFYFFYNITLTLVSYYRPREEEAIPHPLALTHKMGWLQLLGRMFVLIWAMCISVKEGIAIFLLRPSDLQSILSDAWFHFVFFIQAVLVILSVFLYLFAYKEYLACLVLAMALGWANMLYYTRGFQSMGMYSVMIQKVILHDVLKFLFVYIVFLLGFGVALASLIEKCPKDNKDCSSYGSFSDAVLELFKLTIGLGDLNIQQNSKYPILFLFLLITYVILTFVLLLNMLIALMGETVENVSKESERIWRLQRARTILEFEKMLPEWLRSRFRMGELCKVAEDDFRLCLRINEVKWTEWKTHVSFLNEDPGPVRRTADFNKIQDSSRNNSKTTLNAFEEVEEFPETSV
Assay: Whole-cell patch-clamp recording of hTRPV3 current in transfected HEK293T cells (2-APB induced)
Assay type: cell-based
Details: current induced by 300 μM 2-APB, compounds tested up to 10 μM, room temperature
Experimental: Various technologies can be utilized to assess TRPV3 activation in accordance with the present disclosure. For example, in some embodiments, compounds are assessed in in vitro patch clamp experiments. Certain useful procedures are described herein as examples.
In some embodiments, whole-cell patch-clamp recordings were used to detect the current through hTRPV3 channels in the HEK293T cell line transfected with hTRPV3 cDNA and evaluate the exact blocking effect of compounds on hTRPV3. In some embodiments, a perfusion system was adopted to control the extracellular solution, including the addition of the agonist and different antagonists.
HEK293T cells were cultured in a Dulbecco's modified Eagle's medium containing 10% fetal bovine serum (Thermo Scientific) and 1% penicillin/streptomycin (Thermo Scientific) at 37° C. with 5% CO2. The commercially available plasmid with the full-length cDNA of hTRPV3 (791 aa) (NM_001258205.2) was purchased from OriGene Technologies. The transfection of hTRPV3 plasmids was conducted using Lipofectamine™ 3000 following the manufacturer's instructions (Invitrogen).
Whole-cell patch-clamp experiments were performed 18 h post-transfection, using a MultiClamp 700B amplifier driven by pClamp 11 software (Molecular Devices). In order to achieve good single-cell physical separation, HEK293T cells with hTRPV3 expression were digested and then re-plated at low density on glass coverslips. Electrodes were pulled from borosilicate glass with a P-97 micropipette puller (Sutter Instruments) and those with resistances of 3-5 MΩ are used for experiments. In some embodiments, an Ag—AgCl wire was used as a reference electrode and signals are filtered using a 2.9 kHz low-pass Bessel filter. Membrane potential was held at 0 mV. For recording of agonist-induced activation and inhibition by different test compounds, currents were elicited by a protocol consisting of a 400-ms step to +80 mV, followed by a 400-ms step to −80 mV at 2-s intervals. both pipette and bath solutions contained 130 mM NaCl, 0.3 mM EDTA, and 3 mM HEPES (buffered to pH 7.4 with NaOH). All recordings were made at room temperature.
All patch-clamp recordings were analyzed using the Clampfit software and GraphPad Prism 6.0 software. Specifically, data are analyzed by calculating the degree of current amplitude after the test compound addition compared with the unblocked agonist-induced current amplitude. The resulting blocking percentage at each concentration was used to make a concentration-response analysis and fitted to the Hill equation: blocking percentage=minimum blocking percentage+ (maximum blocking percentage-minimum blocking percentage)/(1+10^(Hill slope* […])). The minimum blocking percentage is 0% and maximum blocking percentage is 100%, while the Hill slope and the IC50 were determined as the curve fitting routine. Compounds of interest were tested against hTRPV3 at concentrations up to 10 μM, and certain data was used to estimate IC50 as described herein.

| IC50 | SMILES |
| --- | --- |
| ≥ 10000 nM | CCC1(CC)Oc2cc(C(F)(F)F)ccc2-c2nc(NS(=O)(=O)c3c(OC)ncnc3OC)sc21 [compound 56] |
| 100 to 1000 nM | COc1ncnc(OC)c1C(=O)Nc1nc2c(s1)C1(CN(C(C)C)C1)Oc1cc(C(C)C)ccc1-2 [compound 145, N-(1,7′-diisopropylspiro[azetidine-3,4′-chromeno[4,3-d]thiazol]-2′-yl)-4,6-dimethoxypyrimidine-5-carboxamide] |
| < 100 nM | COc1ncnc(OC)c1C(=O)Nc1nc2c(s1)C1(CCCCC1)Oc1cc(C(F)(F)F)ccc1-2 [compound 13, 4,6-dimethoxy-N-(7-(trifluoromethyl)spiro[chromeno[4,3-d]thiazole-4,1′-cyclohexan]-2-yl)pyrimidine-5-carboxamide] |
| 100 to 1000 nM | COc1ncnc(OC)c1C(=O)Nc1nc2c(s1)C1(CCN(C(=O)OC(C)(C)C)C1)Oc1cc(C(F)(F)F)ccc1-2 (centres unmarked) [compound 106, tert-butyl 2-(4,6-dimethoxypyrimidine-5-carboxamido)-7-(trifluoromethyl)spiro[chromeno[4,3-d]thiazole-4,3′-pyrrolidine]-1′-carboxylate] |
| 1000 to 10000 nM | COc1ncnc(OC)c1C(=O)Nc1nc2c(s1)C1(CCC(C(=O)NC(C)C)CC1)Oc1cc(C(F)(F)F)ccc1-2 (centres unmarked) [compound 125, 2-(4,6-dimethoxypyrimidine-5-carboxamido)-N-isopropyl-7-(trifluoromethyl)spiro[chromeno[4,3-d]thiazole-4,1′-cyclohexane]-4′-carboxamide] |
| < 100 nM | COc1ncnc(OC)c1C(=O)Nc1nc2c(s1)C1(CN(C3(OC)CC3)C1)Oc1cc(C(F)(F)F)ccc1-2 [compound 153, 4,6-dimethoxy-N-(1-(1-methoxycyclopropyl)-7′-(trifluoromethyl)spiro[azetidine-3,4′-chromeno[4,3-d]thiazol]-2′-yl)pyrimidine-5-carboxamide] |
| ≥ 10000 nM | CCC1(CC)Oc2cc(C(F)(F)F)ccc2-c2nc(NC(=O)c3c(OC)ncnc3OCOC)sc21 [compound 122, N-(4,4-diethyl-7-(trifluoromethyl)-4H-chromeno[4,3-d]thiazol-2-yl)-4-methoxy-6-(methoxymethoxy)pyrimidine-5-carboxamide] |
| 100 to 1000 nM | CCOc1ncnc(OCC)c1C(=O)Nc1nc2c(s1)C(CC)(CC)Oc1cc(C(F)(F)F)ccc1-2 [compound 47, N-(4,4-diethyl-7-(trifluoromethyl)-4H-chromeno[4,3-d]thiazol-2-yl)-4,6-diethoxypyrimidine-5-carboxamide] |
| 1000 to 10000 nM | CCC1(CC)Oc2cc(Br)ccc2-c2nc(NC(=O)c3c(OC)ncnc3OC)sc21 [compound 49, N-(7-bromo-4,4-diethyl-4H-chromeno[4,3-d]thiazol-2-yl)-4,6-dimethoxypyrimidine-5-carboxamide] |
| 1000 to 10000 nM | COc1ncnc(OC)c1C(=O)Nc1nc2c(s1)C1(CCC(C(=O)N(C)C)CC1)Oc1cc(C(F)(F)F)ccc1-2 (centres unmarked) [compound 116, 2-(4,6-dimethoxypyrimidine-5-carboxamido)-N,N-dimethyl-7-(trifluoromethyl)spiro[chromeno[4,3-d]thiazole-4,1′-cyclohexane]-4′-carboxamide] |

More lines, now with the values behind:

| SMILES | IC50 |
| --- | --- |
| COc1ncnc(OC)c1C(=O)Nc1nc2c(s1)C1(CCC(OCc3ccccc3)CC1)Oc1cc(C(F)(F)F)ccc1-2 (centres unmarked) [compound 30, N-(4′-(benzyloxy)-7-(trifluoromethyl)spiro[chromeno[4,3-d]thiazole-4,1′-cyclohexan]-2-yl)-4,6-dimethoxypyrimidine-5-carboxamide] | 100 to 1000 nM |
| COc1ncnc(OC)c1C(=O)Nc1nc2c(s1)C(C)(c1ccccc1)Oc1cc(C(F)(F)F)ccc1-2 (centres unmarked) [compound 25, 4,6-dimethoxy-N-(4-methyl-4-phenyl-7-(trifluoromethyl)-4H-chromeno[4,3-d]thiazol-2-yl)pyrimidine-5-carboxamide] | < 100 nM |
| COc1ncnc(OC)c1C(=O)Nc1nc2c(s1)Cc1ccc(Cl)cc1-2 [compound 7, N-(5-chloro-8H-indeno[1,2-d]thiazol-2-yl)-4,6-dimethoxypyrimidine-5-carboxamide] | 1000 to 10000 nM |
| CCC1(CC)Oc2cc(C(F)(F)F)ccc2-c2nc(NC(=O)c3c(OC)ncnc3OCCOC)sc21 [compound 70, N-(4,4-diethyl-7-(trifluoromethyl)-4H-chromeno[4,3-d]thiazol-2-yl)-4-methoxy-6-(2-methoxyethoxy)pyrimidine-5-carboxamide] | 100 to 1000 nM |
| COc1ncnc(OC)c1C(=O)Nc1nc2c(s1)C1(COC1)Oc1cc(C(C)C)ccc1-2 [compound 135, N-(7-isopropylspiro[chromeno[4,3-d]thiazole-4,3′-oxetan]-2-yl)-4,6-dimethoxypyrimidine-5-carboxamide] | < 100 nM |
| COc1ncnc(OC)c1C(=O)Nc1nc2c(s1)COc1cc(F)ccc1-2 [compound 10, N-(7-fluoro-4H-chromeno[4,3-d]thiazol-2-yl)-4,6-dimethoxypyrimidine-5-carboxamide] | ≥ 10000 nM |
| CCC1(CC)Oc2cc(C(F)(F)F)ccc2-c2nc(NC(=O)c3c(OC)nc(O)nc3OC)sc21 [compound 79] | ≥ 10000 nM |
| CCC1(CC)Oc2cc(C3CC3)ccc2-c2nc(NC(=O)c3c(OC)ncnc3OC)sc21 [compound 54, N-(7-cyclopropyl-4,4-diethyl-4H-chromeno[4,3-d]thiazol-2-yl)-4,6-dimethoxypyrimidine-5-carboxamide] | 100 to 1000 nM |
| CCC1(CC)Oc2cc(C(F)(F)F)ccc2-c2nc(NC(=O)c3c(OC)nn(C)c3Br)sc21 [compound 161, 5-bromo-N-(4,4-diethyl-7-(trifluoromethyl)-4H-chromeno[4,3-d]thiazol-2-yl)-3-methoxy-1-methyl-1H-pyrazole-4-carboxamide] | ≥ 10000 nM |
| COc1ncnc(OC)c1C(=O)Nc1nc2c([se]1)C1(CN(C(=O)OC(C)(C)C)C1)Oc1cc(C(F)(F)F)ccc1-2 [compound 168, tert-butyl 2′-(4,6-dimethoxypyrimidine-5-carboxamido)-7′-(trifluoromethyl)spiro[azetidine-3,4′-chromeno[4,3-d][1,3]selenazole]-1-carboxylate] | 100 to 1000 nM |
| COc1ncnc(OC)c1C(=O)Nc1nc2c(s1)C1(CN(C(C)=O)C1)Oc1cc(C(F)(F)F)ccc1-2 [compound 68, N-(1-acetyl-7′-(trifluoromethyl)spiro[azetidine-3,4′-chromeno[4,3-d]thiazol]-2′-yl)-4,6-dimethoxypyrimidine-5-carboxamide] | 1000 to 10000 nM |
| COc1ncnc(OC)c1C(=O)Nc1nc2c(s1)C(C)(CCCC(=O)O)Oc1cc(C(F)(F)F)ccc1-2 (centres unmarked) [compound 114, 4-(2-(4,6-dimethoxypyrimidine-5-carboxamido)-4-methyl-7-(trifluoromethyl)-4H-chromeno[4,3-d]thiazol-4-yl) butanoic acid] | 1000 to 10000 nM |
| COc1ncnc(OC)c1C(=O)Nc1nc2c(s1)C1(CCC(C(=O)OC(C)C)CC1)Oc1cc(C(F)(F)F)ccc1-2 (centres unmarked) [compound 123, isopropyl 2-(4,6-dimethoxypyrimidine-5-carboxamido)-7-(trifluoromethyl)spiro[chromeno[4,3-d]thiazole-4,1′-cyclohexane]-4′-carboxylate] | < 100 nM |
